The record followed here is patent US20250163066A1, “PROTACs of MALT1” (TEGID THERAPEUTICS, INC., priority 2022, published 2025).

The test system of experiment [1] is IL-2 MALT1-dependent release in Jurkat cells. The experiment in a line: cells. It counts as cell-based. The conditions noted are these: Homo sapiens; Jurkat cells stimulated with antiCD3/antiCD28 for 24 h; IL-2 ELISA; read-out: EC50, IL-2 MALT1-dependent release inhibition. The procedure, abridged:
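Jurkat cells (100,000/well, RPMI 1640 with 10% FBS, 37 °C, 5% CO2) were preincubated with compound or DMSO for 0.5-1 h, in duplicate. Stimulation used anti-CD3 (HIT3a) plus anti-CD28 antibodies for 24 h. IL-2 in supernatants was then measured by ELISA.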

Experiment [2] has as its target T1, MALT1 (Homo sapiens (Human), UniProt Q9UDY8). The experiment can be described thus: MALT1 enzymatic activity inhibition (fluorescence, Ac-LRSR-AMC substrate). The format is biochemical. The conditions noted are these: recombinant MALT1 1.5 ng/μl, Ac-LRSR-AMC 1 μM. The procedure, abridged: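 Recombinant human MALT1 (1.5 ng/μl final) preincubated 10 min at rt with compounds in 50 mM HEPES pH 7.2-7.4, 100 mM NaCl, 900 mM sodium citrate, 10 mM DTT; 1 μM Ac-LRSR-AMC then added. AMC fluorescence read at start and after 30 min 37 °C plus 30 min rt; difference gives signal, % inhibition fitted to IC50.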

The target in experiment [3] is T1, MALT1. The experiment in a line: MALT1 degradation in JeKo-1 cells (capillary Western blotting). It counts as cell-based. The conditions noted are these: 48 h incubation, read-out: EC50 for MALT1 degradation. How it is done:
JeKo-1 cells (ATCC, USA) were cultured in RPMI 1640 supplemented with 10% FBS at 37° C., 5% CO2 in a humidified cell culture incubator. 1 ml of cells (1*10^6 cells per well) was transferred to each well of a 24-well plate (Greiner, #662160). Then 40 μl/well 25× compound (or DMSO) were added. Cells were incubated with compound in a humidified cell culture incubator for 48 h. At the end of incubation, cell suspension was transferred from wells into 2 ml tubes (Greiner, #623201), centrifuged at 300 g for 5 min and the supernatant was discarded. Then cell pellets were washed with cooled PBS. Cell lysates were prepared by adding 40 μl of RIPA lysis buffer (ProteinSimple, #040-483) to the cell pellet. […] Next, protein concentration in cell lysates was determined by Pierce™ Coomassie (Bradford) Protein Assay Kit (Thermo Scientific, #23200) according to manufacturer's instructions.
Levels of MALT1, Bcl10 and CYLD proteins in prepared cell lysates were assessed in capillary Western blotting system Jess (JS-3030, ProteinSimple) using 12-230 kDa Separation Module (ProteinSimple #SM-W004), Anti-Mouse Detection Module (ProteinSimple #DM-002) and Anti-Rabbit Detection Module (ProteinSimple #DM-001) according to manufacturer's instructions. […] Beta-actin was used as a loading control detected by anti-beta-actin primary antibodies (RnD Systems, #MAB8929) at 1:100 dilution.

T1 sequence (Q9UDY8 whole entry): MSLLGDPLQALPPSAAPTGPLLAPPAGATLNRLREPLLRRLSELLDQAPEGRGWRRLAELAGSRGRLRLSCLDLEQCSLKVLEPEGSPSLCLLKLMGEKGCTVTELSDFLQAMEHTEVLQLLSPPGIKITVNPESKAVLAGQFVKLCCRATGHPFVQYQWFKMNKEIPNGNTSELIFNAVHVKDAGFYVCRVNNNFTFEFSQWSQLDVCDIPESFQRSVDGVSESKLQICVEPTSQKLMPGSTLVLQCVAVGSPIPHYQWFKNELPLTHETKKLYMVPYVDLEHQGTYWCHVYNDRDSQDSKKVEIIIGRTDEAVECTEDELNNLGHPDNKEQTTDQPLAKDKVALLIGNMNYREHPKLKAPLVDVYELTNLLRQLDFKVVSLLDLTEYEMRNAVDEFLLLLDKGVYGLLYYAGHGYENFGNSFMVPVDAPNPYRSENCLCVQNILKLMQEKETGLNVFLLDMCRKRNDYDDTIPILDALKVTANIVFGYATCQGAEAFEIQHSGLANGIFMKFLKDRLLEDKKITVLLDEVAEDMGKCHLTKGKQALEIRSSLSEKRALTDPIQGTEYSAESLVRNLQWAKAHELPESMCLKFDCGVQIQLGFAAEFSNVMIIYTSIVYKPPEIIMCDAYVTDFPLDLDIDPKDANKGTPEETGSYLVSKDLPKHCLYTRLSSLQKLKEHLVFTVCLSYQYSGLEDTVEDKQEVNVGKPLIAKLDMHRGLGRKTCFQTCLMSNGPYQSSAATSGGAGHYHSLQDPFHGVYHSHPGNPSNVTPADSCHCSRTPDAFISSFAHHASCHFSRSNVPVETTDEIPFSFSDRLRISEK

Take `Cc1cc(NC(=O)Nc2cnc3ccnn3c2C2CCCO2)cnc1-c1noc(CCCCCC(=O)N2CCN(c3ccc4c(c3)CN(C3CCC(=O)NC3=O)C4=O)CC2)n1` (stereo not drawn) [Compound 2, 1-[6-[5-[6-[4-[2-(2,6-dioxo-3-piperidyl)-1-oxo-isoindolin-5-yl]piperazin-1-yl]-6-oxo-hexyl]-1,2,4-oxadiazol-3-yl]-5-methyl-3-pyridyl]-3-(7-tetrahydrofuran-2-ylpyrazolo[1,5-a]pyrimidin-6-yl)urea]: the EC50 was 500 to 1000 nM in experiment [1] and not above 0.2 µM at MALT1 [2]. For the same compound, on MALT1 [3], the DC50 turned out to be 85 nM.

By EC50 is commonly meant the concentration at which the effect is half-maximal.
